Data as given in patent publication US7897638B2, “Synthesis of nitrodibenzylfuran chromophore for photodeprotection of organic molecules” (Philadelphia Health & Education Corporation, priority 2005, dated 2011).
Where two headings read alike, the source gives them in different places.

Key:
[1] = Quantum yield of photolysis by comparison with MNI-glutamate, HPLC; format: physicochemical; conditions: photolyzed at 350 nm, relative to MNI-glutamate; listed as NDBF Calcium
From the text: Inventors measured the quantum yield of photolysis of NDBF-EGTA by comparison with a known standard, 4-methoxy-7-nitroindolinyl(MNI)-glutamate (Matsuzaki, et al., 1999). A solution containing NDBF-EGTA and MNI-glutamate was photolyzed at 350 nm, in order to determine the relative % photolysis of the two caged compounds. The concentrations of the two compounds were set so that their chromophores would absorb the same amount of light (MNI/NDBF ratio 3.7:1), and so that the total optical density was 0.4. Under these conditions the same number of excited states are created simultaneously for both cages, making determination of the quantum for NBDF-EGTA more reliable. As a control, both cages were photolyzed separately to check that there was no interference from simultaneous photolysis. Inosine was also included in the photolysis reaction mixture, as a photochemically inert standard. MNI-glutamate has a quantum yield of photolysis of 0.085. […] Saturating [Ca] had no effect on this value.

[2] = Photochemical properties of caged compounds (Table 1); format: physicochemical; conditions: for ε/M^−1 cm^−1 (extinction coefficient): NDBF chromophore; for ε · φ (efficiency of use of the incident light): product of extinction coefficient and quantum yield
From the text: The extinction coefficient (ε) and the quantum yield (φ) are the two photochemical properties that define the efficiency of a chromophore. The former is an absolute value of a chromophore; the latter depends upon the exact nature of the photolyzed bond, as well as the chromophore itself. The four most widely used caged compounds (ATP, IP3, glutamate, Ca) with the ortho-nitrobenzyl chromophore have ε and φ in the range of 430-970 and 0.14-0.63. The product (ε·φ) for each caged compound defines the efficiency of use of the incident light.

[3] = Two-photon photolysis; format: physicochemical
Experimental: Two-photon photolysis (2PP) of a solution contains MNI-glutamate (1.4 mM) and NDBF-EGTA (0.1 mM), by raster scanning the solution (256 pulses, 4 ms each, 300 mW).

[4] = widely used, commercially available caged compounds; cited from earlier work
[5] = known standard; cited from earlier work

2-photon cross-section [3] | Compound | φ (quantum yield of photolysis) [1] | ε/M^−1 cm^−1 (extinction coefficient) [2] | Rate/s^−1 (rate of release) ([2]; NDBF-caged calcium) | ε · φ (efficiency of use of the incident light) [2] | Rate/s^−1 (rate of release) [4] [s⁻¹] | φ (quantum yield) [4] | quantum yield of photolysis [5]
 | COc1cc(COP2(=O)OCC3OC(n4cnc5c(N)ncnc54)C(O)C3O2)c([N+](=O)[O-])cc1OC (centres unmarked) [DMNB cAMP] |  |  |  |  | 300 | 0.05 | 
0.06 GM | COc1ccc([N+](=O)[O-])c2c1CCN2C(=O)CC[C@H](N)C(=O)O [MNI-glutamate, 4-methoxy-7-nitroindolinyl(MNI)-glutamate, reference compound] |  |  |  |  |  |  | 0.085
at least 0.3 GM | nitrodibenzylfuran [NDBF] |  | 18,400 M^−1 cm^−1 |  | above 10,000 |  |  | 
 | COc1cc(COP(=O)(O)OP(=O)(O)OP(=O)(O)OCC2OC(n3cnc4c(N)ncnc43)C(O)C2O)c([N+](=O)[O-])cc1OC (centres unmarked) [DMNB ATP] |  |  |  |  | 18 | 0.07 | 

Compound | 2-photon cross-section [3] | φ (quantum yield of photolysis) [1] | ε/M^−1 cm^−1 (extinction coefficient) [2] | Rate/s^−1 (rate of release) ([2]; NDBF-caged calcium) | ε · φ (efficiency of use of the incident light) [2] | Rate/s^−1 (rate of release) [4] [s⁻¹] | φ (quantum yield) [4] | quantum yield of photolysis [5]
NDBF-EGTA | 0.3-0.6 GM | 0.6 | 18,400 M^−1 cm^−1 | 25,000 s^−1 | 11,000 |  |  | 
